In the supplement of paper PMC4932681:

Experiments:
MCF-7 [1] = test: relative IC50 (midpoint of fitted logistic curve, plateau may be below 50% inhibition; CellTiter-Glo viability); higher = less potent; details: 72 h
Summary of the method: (§1)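 Breast cancer cell lines and their resistant derivatives were seeded into 384-well plates holding FO2Baq library drugs at five concentrations spanning a 10 000-fold range. Resistant lines were in medium with 1 μM of the selecting drug. Cells were incubated 72 h at 37 °C, and CellTiter-Glo viability was read on a PHERAstar and normalised to vehicle-only and positive controls. Drug sensitivity score, relative IC50 (curve midpoint) and top-dose inhibition came from logistic dose–response fits (Breeze pipeline).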

MCF-7 Tam1 [2] = test: as above; details: 4-OH-tamoxifen in medium 1 µM; 72 h
Summary of the method: as §1

ZR-75-1 [3] = test: as above; details: 72 h
Summary of the method: as §1

BT-474 Tam1 [4] = test: as above; details: 4-OH-tamoxifen in medium 1 µM; 72 h
Summary of the method: as §1

BT-474 [5] = test: as above; details: 72 h
Summary of the method: as §1

T-47D [6] = test: as above; details: 72 h
Summary of the method: as §1

ZR-75-1 Tam1 [7] = test: as above; details: 4-OH-tamoxifen in medium 1 µM; 72 h
Summary of the method: as §1

BT-474 Tam2 [8] = test: as above; details: 4-OH-tamoxifen in medium 1 µM; 72 h
Summary of the method: as §1

T-47D Tam2 [9] = test: as above; details: 4-OH-tamoxifen in medium 1 µM; 72 h
Summary of the method: as §1

ZR-75-1 Tam2 [10] = test: as above; details: 4-OH-tamoxifen in medium 1 µM; 72 h
Summary of the method: as §1

MCF-7 [11] = test: drug sensitivity score (DSS) (DSS (dimensionless)); higher = more sensitive; extreme values may be limits of the assay; details: 72 h
Summary of the method: as §1

MCF-7 Tam1 [12] = test: as above; details: 4-OH-tamoxifen in medium 1 µM; 72 h
Summary of the method: as §1

ZR-75-1 [13] = test: as above; details: 72 h
Summary of the method: as §1

BT-474 Tam1 [14] = test: as above; details: 4-OH-tamoxifen in medium 1 µM; 72 h
Summary of the method: as §1

BT-474 [15] = test: as above; details: 72 h
Summary of the method: as §1

T-47D [16] = test: as above; details: 72 h
Summary of the method: as §1

ZR-75-1 Tam1 [17] = test: as above; details: 4-OH-tamoxifen in medium 1 µM; 72 h
Summary of the method: as §1

BT-474 Tam2 [18] = test: as above; details: 4-OH-tamoxifen in medium 1 µM; 72 h
Summary of the method: as §1

T-47D Tam1 = test: as above; details: 4-OH-tamoxifen in medium 1 µM; 72 h
Summary of the method: as §1

T-47D Tam2 [19] = test: as above; details: 4-OH-tamoxifen in medium 1 µM; 72 h
Summary of the method: as §1

ZR-75-1 Tam2 [20] = test: as above; details: 4-OH-tamoxifen in medium 1 µM; 72 h
Summary of the method: as §1

Row | Compound | relative IC50 (MCF-7 [1]; 4-OH-tamoxifen in medium 0 µM) [µM] | relative IC50 (MCF-7 Tam1 [2]) [µM] | relative IC50 (ZR-75-1 [3]; 4-OH-tamoxifen in medium 0 µM) [µM] | relative IC50 (ZR-75-1 [3]; 4-OH-tamoxifen in medium 1 µM) [µM] | relative IC50 (BT-474 Tam1 [4]) [µM] | relative IC50 (BT-474 [5]; 4-OH-tamoxifen in medium 0 µM) [µM] | relative IC50 (BT-474 [5]; 4-OH-tamoxifen in medium 1 µM) [µM] | relative IC50 (T-47D [6]; 4-OH-tamoxifen in medium 0 µM) [µM] | relative IC50 (T-47D [6]; 4-OH-tamoxifen in medium 1 µM) [µM] | relative IC50 (ZR-75-1 Tam1 [7]) [µM] | relative IC50 (BT-474 Tam2 [8]) [µM] | relative IC50 (T-47D Tam2 [9]) [µM] | relative IC50 (ZR-75-1 Tam2 [10]) [µM] | drug sensitivity score (MCF-7 [11]; 4-OH-tamoxifen in medium 0 µM) | drug sensitivity score (MCF-7 [11]; 4-OH-tamoxifen in medium 1 µM) | drug sensitivity score (MCF-7 Tam1 [12]) | drug sensitivity score (ZR-75-1 [13]; 4-OH-tamoxifen in medium 0 µM) | drug sensitivity score (ZR-75-1 [13]; 4-OH-tamoxifen in medium 1 µM) | drug sensitivity score (BT-474 Tam1 [14]) | drug sensitivity score (BT-474 [15]; 4-OH-tamoxifen in medium 0 µM) | drug sensitivity score (BT-474 [15]; 4-OH-tamoxifen in medium 1 µM) | drug sensitivity score (T-47D [16]; 4-OH-tamoxifen in medium 0 µM) | drug sensitivity score (T-47D [16]; 4-OH-tamoxifen in medium 1 µM) | drug sensitivity score (ZR-75-1 Tam1 [17]) | drug sensitivity score (BT-474 Tam2 [18]) | drug sensitivity score (T-47D Tam1) | drug sensitivity score (T-47D Tam2 [19]) | drug sensitivity score (ZR-75-1 Tam2 [20]) | relative IC50 (MCF-7 [1]; 4-OH-tamoxifen in medium 1 µM) [µM]
1 | C[C@]12CC[C@@H]3c4ccc(O)cc4C[C@@H](CCCCCCCCC[S+]([O-])CCCC(F)(F)C(F)(F)F)[C@H]3[C@@H]1CC[C@@H]2O (stereo partly drawn) [Fulvestrant] | 0.00643 | > 1 | > 1 | > 1 | > 1 | > 1 | > 1 | > 1 | 0.045 | > 1 | > 1 | > 1 | > 1 | 7.84 | 0.235 | 0 | 0 | 0 | 0 | 0 | 0 | 0 | 5.21 | 0 | 0 | 0.0366 | 0 | 0 | 
2 | CCC1(c2ccc(N)cc2)CCC(=O)NC1=O (stereo not drawn) [Aminoglutethimide] | > 10 | > 10 |  | > 10 | > 10 | > 10 |  | > 10 |  | > 10 | > 10 | > 10 | > 10 | 0 | 5.49 | 0 | 0 | 0 | 0 | 0 | 0.6 | 0 | 0.781 | 0 | 0 | 0 | 0 | 0 | 
3 | C/C(=C\c1csc(C)n1)[C@@H]1C[C@@H]2O[C@]2(C)CCC[C@H](C)[C@H](O)[C@@H](C)C(=O)C(C)(C)[C@@H](O)CC(=O)N1 [Ixabepilone] |  | > 1 | > 1 | > 1 | > 1 | > 1 | 0.436 | 0.415 |  | > 1 | > 1 | 0.229 | > 1 | 0.882 | 1 | 0 | 0 | 0 | 0 | 0 | 1.39 | 1.7 | 0.538 | 0 | 0 | 0.349 | 2.1 | 0 | 
4 | CCN1CCN(c2ccc(Nc3cc(N(C)C(=O)Nc4c(Cl)c(OC)cc(OC)c4Cl)ncn3)cc2)CC1 [NVP-BGJ398] | > 1 | > 1 | > 1 | > 1 |  | > 1 | > 1 | > 1 | > 1 | > 1 | > 1 | > 1 | > 1 | 0 | 0 | 0 | 0 | 0 | 6.97 | 0 | 0 | 0 | 0 | 0 | 0 | 1.07 | 0 | 0 | > 1
5 | CCN(CC)CCNC(=O)c1c(C)[nH]c(/C=C2\C(=O)Nc3ccc(F)cc32)c1C | > 1 | > 1 | > 1 | > 1 |  | > 1 | 0.276 | > 1 |  | > 1 | > 1 | > 1 | > 1 | 0 | 0 | 0 | 0 | 0 | 0.118 | 0 | 1.81 | 0 | 0.383 | 0 | 0 | 0.199 | 0 | 0 | > 1
6 | Cc1cc(Nc2nc(N[C@@H](C)c3ncc(F)cn3)ncc2Cl)[nH]n1 [AZD1480] |  | > 1 | > 1 | > 1 | > 1 | > 1 | > 1 | > 1 | > 1 | > 1 | > 1 | > 1 | > 1 | 0.0046 | 0 | 0 | 0 | 0 | 0 | 0 | 0 | 0 | 0 | 0 | 0 | 2.6 | 0 | 0 | > 1
7 | CC(=O)O[C@@]12CO[C@@H]1C[C@H](O)[C@@]1(C)C(=O)[C@H](O)C3=C(C)[C@@H](OC(=O)[C@H](O)[C@@H](NC(=O)OC(C)(C)C)c4ccccc4)C[C@@](O)([C@@H](OC(=O)c4ccccc4)[C@H]21)C3(C)C [Docetaxel] | 0.00123 | > 1 |  | > 1 | 0.00672 | 0.00376 | 0.00383 | 0.00176 | > 1 | > 1 |  | 0.00421 | > 1 | 7.56 | 5.79 | 0 | 0.389 | 0 | 10 | 14 | 17.7 | 15.4 | 0 | 0 | 3.99 | 8.38 | 10.8 | 0 | 
